# Reference: US8962313B2, “Method for the simultaneous induction of CTL and γδT cell” (Medinet Co., Ltd., priority 2008, dated 2015)
# Key:
# Format in all cases: cell-based, human
# [1] = system: disease antigen specific CD8-positive T cells in peripheral blood mononuclear cells; assay: Induction of disease antigen specific CD8-positive T cells (CTLs) in cultured peripheral blood mononuclear cells, FACS with Mart-1 tetramer; settings: 5 μM zoledronic acid, 1,000 U/mL IL-2, Disease Antigen (+) = plus 2 μg/ml Mart-1 (A27L)
# Protocol: (§1) 1) Peripheral blood (42 ml) was collected from a healthy donor and peripheral blood mononuclear cells were separated therefrom using a density gradient solution for blood cell separation.
# (§2) 2) The resultant peripheral blood mononuclear cells were suspended in AIM-V.
# (§3) 3) These peripheral blood mononuclear cells (8×10^6/4 mL) were seeded in a 6-well plate (SUMILON). Thereto was added 1,000 U/mL IL-2, to which 5 μM zoledronic acid (ZOMETA (trade name)) and 2 μg/ml Mart-1 (A27L, sequence: […]) as a peptide were further added, followed by starting culture under conditions of 37° C. and 5% CO2 concentration.
# (§4) 4) In addition, AB serum was added in an amount of 10% after starting the culture.
# (§5) 5) AIM-V containing 1,000 U/ml IL-2 and AB serum were added depending on the proliferation of cells, which were then cultured for 14 days.
# (§6) 6) In the cell population obtained after culture for 7 days or 14 days as described above, the percentage of disease antigen specific CD8-positive T cells and the percentage of cells expressing TCRVγ9 were measured using an anti-CD8 antibody (BD Pharmingen), T-Select HLA-A*0201 Mart-1 Tetramer […] (MBL), an anti-TCRVγ9 antibody (Beckman Coulter) and an anti-CD3 antibody (Beckman Coulter) with a fluorescence-activated cell sorter (hereinafter referred to as FACS; Epics XL-MCL ADC, Beckman Coulter).
# CD56 on γδT cells = assay: Surface antigen (CD3, Vγ9-TCR, CD56) expression ratio of γδT cells in cultured peripheral blood mononuclear cells, FACS; settings: Day 13 of culture; 5 μM zoledronic acid, 1,000 U/mL IL-2; Disease Antigen (+) = plus 2 μg/ml Mart-1 (A27L)
# Protocol: Whether the addition of a disease antigen affects the expression ratio of CD56 on γδT Cells or not was examined by the following procedures. CD56 is an isoform of a neural cell adhesion molecule (N-CAM) and an adhesion factor known as a marker for NK cells. It is one of the markers providing indicators of the cytotoxic activity of γδT cells.
# 1) Peripheral blood (8 ml) was collected from a healthy donor and peripheral blood mononuclear cells were separated therefrom using a density gradient solution for blood cell separation.
# as §2
# 3) These peripheral blood mononuclear cells (1.8×10^6/[…]) were seeded in a 12-well plate (SUMILON). Thereto was added 1,000 U/mL IL-2, to which 5 μM zoledronic acid (ZOMETA) and 2 μg/ml Mart-1 (A27L) as a peptide were further added, followed by starting culture under conditions of 37° C. and 5% CO2 concentration.
# as §4
# 5) AIM-V containing 1,000 U/ml IL-2 and AB serum were added depending on the proliferation of cells, which were then cultured for up to 14 days.
# 6) In the cell population obtained after culture for up to 14 days as described above, the percentage of cells expressing TCRVγ9 or the percentage of cells expressing CD-56 were measured using an anti-TCRVγ9 antibody (Beckman Coulter), an anti-CD56 antibody (Beckman Coulter) and an anti-CD3 antibody (Beckman Coulter) with FACS (Epics XL-MCL ADC, Beckman Coulter).
# [2] = system: γδT cells in peripheral blood mononuclear cells; assay: Induction of γδT cells (TCRVγ9-expressing cells) in cultured peripheral blood mononuclear cells, FACS; settings: 5 μM zoledronic acid, 1,000 U/mL IL-2, Disease Antigen (+) = plus 2 μg/ml Mart-1 (A27L)
# Protocol: as §1, §2, §3, §4, §5, §6
smiles,measurement,setting,value
O=P(O)(O)C(O)(Cn1ccnc1)P(=O)(O)O [zoledronic acid],Expansion Fold (times) of Disease Antigen Specific CD8-Positive T Cells Contained in Mononuclear Cells,"[1]; Donor A, 7 days of culture",0.00 times
same,Percentage (%) of Disease Antigen Specific CD8-Positive T Cells Contained in Mononuclear Cells,"[1]; Donor A, 7 days of culture",0.00%
same,Expansion Fold (times) of Disease Antigen Specific CD8-Positive T Cells Contained in Mononuclear Cells,"[1]; Donor A, 14 days of culture",0.00 times
same,Percentage (%) of Disease Antigen Specific CD8-Positive T Cells Contained in Mononuclear Cells,"[1]; Donor A, 14 days of culture",0.00%
same,Expansion Fold (times) of Disease Antigen Specific CD8-Positive T Cells Contained in Mononuclear Cells,"[1]; Donor B, 7 days of culture",1.79 times
same,Percentage (%) of Disease Antigen Specific CD8-Positive T Cells Contained in Mononuclear Cells,"[1]; Donor B, 7 days of culture",0.01%
same,Expansion Fold (times) of Disease Antigen Specific CD8-Positive T Cells Contained in Mononuclear Cells,"[1]; Donor B, 14 days of culture",0.00 times
same,Percentage (%) of Disease Antigen Specific CD8-Positive T Cells Contained in Mononuclear Cells,"[1]; Donor B, 14 days of culture",0.00%
same,Expansion Fold (times) of Disease Antigen Specific CD8-Positive T Cells Contained in Mononuclear Cells,"[1]; Donor C, 7 days of culture",0.57 times
same,Percentage (%) of Disease Antigen Specific CD8-Positive T Cells Contained in Mononuclear Cells,"[1]; Donor C, 7 days of culture",0.02%
same,Expansion Fold (times) of Disease Antigen Specific CD8-Positive T Cells Contained in Mononuclear Cells,"[1]; Donor C, 14 days of culture",0.00 times
same,Percentage (%) of Disease Antigen Specific CD8-Positive T Cells Contained in Mononuclear Cells,"[1]; Donor C, 14 days of culture",0.00%
same,"Surface Antigen Expression Ratio (%): CD3, Gate Area Live Cells",CD56 on γδT cells,98.5%
same,"Surface Antigen Expression Ratio (%): CD56, Gate Area CD3",CD56 on γδT cells,53.1%
same,"Surface Antigen Expression Ratio (%): CD56, Gate Area Live Cells",CD56 on γδT cells,54.4%
same,"Surface Antigen Expression Ratio (%): CD56, Gate Area Vγ9",CD56 on γδT cells,53.1%
same,"Surface Antigen Expression Ratio (%): Vγ9-TCR, Gate Area Live Cells",CD56 on γδT cells,97.0%
same,Expansion Fold (times) of γδT Cells Contained in Mononuclear Cells,"[2]; Donor A, 7 days of culture",50.40 times
same,Percentage (%) of γδT Cells Contained in Mononuclear Cells,"[2]; Donor A, 7 days of culture",43.7%
same,Expansion Fold (times) of γδT Cells Contained in Mononuclear Cells,"[2]; Donor A, 14 days of culture",4027.31 times
same,Percentage (%) of γδT Cells Contained in Mononuclear Cells,"[2]; Donor A, 14 days of culture",80.9%
same,Expansion Fold (times) of γδT Cells Contained in Mononuclear Cells,"[2]; Donor B, 7 days of culture",31.31 times
same,Percentage (%) of γδT Cells Contained in Mononuclear Cells,"[2]; Donor B, 7 days of culture",68.2%
same,Expansion Fold (times) of γδT Cells Contained in Mononuclear Cells,"[2]; Donor B, 14 days of culture",1328.85 times
same,Percentage (%) of γδT Cells Contained in Mononuclear Cells,"[2]; Donor B, 14 days of culture",99.0%
same,Expansion Fold (times) of γδT Cells Contained in Mononuclear Cells,"[2]; Donor C, 7 days of culture",4.97 times
same,Percentage (%) of γδT Cells Contained in Mononuclear Cells,"[2]; Donor C, 7 days of culture",28.6%
same,Expansion Fold (times) of γδT Cells Contained in Mononuclear Cells,"[2]; Donor C, 14 days of culture",1244.02 times
same,Percentage (%) of γδT Cells Contained in Mononuclear Cells,"[2]; Donor C, 14 days of culture",89.2%
